Each block holds one compound with its values, some of them ahead of it. Activity calls are given as the source filed them. The rule behind the calls is not given here.
Experiments:
[1] = molecular target: T1, CYP2C8 (Homo sapiens, UniProt P10632); assay: Inhibition of CYP2C8 in human liver microsomes at 10 uM in presence of NADPH relative to control
T1 sequence (P10632 whole entry): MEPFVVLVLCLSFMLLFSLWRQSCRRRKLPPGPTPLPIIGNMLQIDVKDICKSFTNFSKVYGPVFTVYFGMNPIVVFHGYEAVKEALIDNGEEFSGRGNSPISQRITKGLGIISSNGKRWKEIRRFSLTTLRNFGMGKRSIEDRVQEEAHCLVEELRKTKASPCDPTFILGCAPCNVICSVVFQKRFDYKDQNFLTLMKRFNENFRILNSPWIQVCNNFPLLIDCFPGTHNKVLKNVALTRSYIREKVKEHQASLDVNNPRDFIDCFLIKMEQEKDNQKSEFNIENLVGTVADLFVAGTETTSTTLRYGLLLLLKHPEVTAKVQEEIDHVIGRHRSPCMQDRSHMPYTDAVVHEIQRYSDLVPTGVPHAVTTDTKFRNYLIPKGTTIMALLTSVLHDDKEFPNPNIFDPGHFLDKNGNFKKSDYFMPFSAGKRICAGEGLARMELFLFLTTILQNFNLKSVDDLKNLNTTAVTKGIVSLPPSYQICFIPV

[2] = molecular target: CYP2C9 (Homo sapiens, UniProt P11712); assay: Inhibition of CYP2C9 in human liver microsomes at 10 uM in presence of NADPH relative to control
[3] = Apparent permeability of the compound from apical to basolateral side in human Caco-2 cells incubated for 1 hr
[4] = Plasma protein binding in Sprague-Dawley rat at 2 uM incubated for 4 hrs by rapid equilibrium dialysis
[5] = Plasma protein binding in human at 2 uM incubated for 4 hrs by rapid equilibrium dialysis
[6] = in vitro; settings: mouse, cryopreserved hepatocytes
[7] = in vitro; settings: rat, cryopreserved hepatocytes
[8] = in vitro; settings: human, cryopreserved hepatocytes
[9] = molecular target: T2, UDP-glucuronosyltransferase 1A1 (Homo sapiens, UniProt P22309); assay: Inhibition of human recombinant UGT1A1 in presence of UDPGA cofactor
T2 sequence (P22309 whole entry): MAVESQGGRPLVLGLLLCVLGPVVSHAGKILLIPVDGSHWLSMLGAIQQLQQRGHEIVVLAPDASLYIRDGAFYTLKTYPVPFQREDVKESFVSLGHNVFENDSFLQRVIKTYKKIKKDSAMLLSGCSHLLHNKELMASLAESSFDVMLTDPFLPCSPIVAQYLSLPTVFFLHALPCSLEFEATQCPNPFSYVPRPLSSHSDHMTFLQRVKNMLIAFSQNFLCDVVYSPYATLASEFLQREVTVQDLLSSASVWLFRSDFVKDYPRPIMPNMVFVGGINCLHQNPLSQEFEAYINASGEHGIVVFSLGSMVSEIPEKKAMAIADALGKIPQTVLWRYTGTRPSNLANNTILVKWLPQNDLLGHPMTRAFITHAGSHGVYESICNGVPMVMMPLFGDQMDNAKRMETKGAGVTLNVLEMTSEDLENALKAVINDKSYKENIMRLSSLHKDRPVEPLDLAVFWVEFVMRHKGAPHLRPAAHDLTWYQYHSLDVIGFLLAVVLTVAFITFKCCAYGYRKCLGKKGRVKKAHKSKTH

[10] = molecular target: T3, Solute carrier organic anion transporter family member 1B1 (Homo sapiens, UniProt Q9Y6L6); assay: Inhibition of OATP1B1 (unknown origin) stably transfected in HEK293 cells at 1 to 100 uM; format: cell-based
T3 sequence (Q9Y6L6 whole entry): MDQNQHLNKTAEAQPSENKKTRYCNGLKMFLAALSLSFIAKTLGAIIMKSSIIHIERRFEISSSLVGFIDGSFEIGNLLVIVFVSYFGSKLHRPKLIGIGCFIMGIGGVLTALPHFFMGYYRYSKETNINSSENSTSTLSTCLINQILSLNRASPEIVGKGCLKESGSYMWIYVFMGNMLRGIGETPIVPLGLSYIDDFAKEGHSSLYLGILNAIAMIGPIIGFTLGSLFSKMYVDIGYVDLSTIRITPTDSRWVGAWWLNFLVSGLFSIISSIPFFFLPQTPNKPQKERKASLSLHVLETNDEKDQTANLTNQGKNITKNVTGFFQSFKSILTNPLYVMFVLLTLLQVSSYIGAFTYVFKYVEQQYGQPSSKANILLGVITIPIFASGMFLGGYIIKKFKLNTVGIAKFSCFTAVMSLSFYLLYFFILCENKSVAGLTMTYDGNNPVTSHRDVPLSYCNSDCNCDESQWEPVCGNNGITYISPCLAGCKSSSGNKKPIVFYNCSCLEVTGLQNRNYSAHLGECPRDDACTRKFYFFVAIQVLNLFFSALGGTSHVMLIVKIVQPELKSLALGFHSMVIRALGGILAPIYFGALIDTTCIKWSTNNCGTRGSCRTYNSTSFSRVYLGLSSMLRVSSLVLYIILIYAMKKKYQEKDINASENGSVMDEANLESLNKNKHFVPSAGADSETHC

[11] = molecular target: Sodium channel protein type 5 subunit alpha (Homo sapiens, UniProt Q14524); assay: Inhibition of Nav1.5 (unknown origin)
[12] = molecular target: Voltage-dependent L-type calcium channel subunit alpha-1C (Homo sapiens, UniProt Q13936); assay: Inhibition of CaV1.2 (unknown origin)
[13] = Effect on CPT1A gene expression in human Huh-7 cells measured for 24 hrs; settings: Huh-7, 24 h
[14] = Plasma protein binding in Beagle dog at 2 uM incubated for 4 hrs by rapid equilibrium dialysis
[15] = Plasma protein binding in cynomolgus monkey at 2 uM incubated for 4 hrs by rapid equilibrium dialysis
[16] = Ratio AUC in mouse liver to plasma; settings: other tissue
[17] = Ratio AUC in rat liver to plasma; settings: other tissue
[18] = system: Rattus norvegicus; assay: Antihypercholesterolemic activity against high fat diet-induced po dosed Sprague-Dawley rat model assessed as reduction in TC level measured after 24 hrs post dose; format: functional, organism-based; settings: dose 0.15-5 mg/kg
[19] = species on record: Rattus norvegicus; assay: Antihypercholesterolemic activity against high fat diet-induced Sprague-Dawley rat model assessed as minimum effective dose measured after 24 hrs post dose; format: functional; settings: read-out: MED
[20] = Cmax in Sprague-Dawley rat at 5 mg/kg, po measured for 24 hrs by LC-MS/MS analysis; format: ADME, organism-based; settings: in vivo
[21] = Cmax in Sprague-Dawley rat at 1.5 mg/kg, po measured for 24 hrs by LC-MS/MS analysis; format: ADME, organism-based; settings: in vivo
[22] = AUC (0 to 24 hrs) in Sprague-Dawley rat at 1.5 mg/kg, po measured for 24 hrs by LC-MS/MS analysis; format: ADME, organism-based; settings: in vivo
[23] = Drug concentration in Sprague-Dawley rat plasma at 5 mg/kg, po measured for 24 hrs by LC-MS/MS analysis; format: ADME, organism-based
[24] = Drug concentration in Sprague-Dawley rat plasma at 1.5 mg/kg, po measured for 24 hrs by LC-MS/MS analysis; format: ADME, organism-based
[25] = Drug concentration in Sprague-Dawley rat liver at 5 mg/kg, po measured for 24 hrs by LC-MS/MS analysis; format: ADME, organism-based; settings: read-out: Ct
[26] = Drug concentration in Sprague-Dawley rat liver at 1.5 mg/kg, po measured for 24 hrs by LC-MS/MS analysis; format: ADME, organism-based; settings: read-out: Ct
[27] = system: Rattus norvegicus; assay: Antihypercholesterolemic activity against high fat diet-induced Sprague-Dawley rat model assessed as change in total cholesterol level at 1.5 mg/kg, po measured at 1 to 24 hrs post dose; format: functional; settings: time 1-24 hrs
[28] = system: Rattus norvegicus; assay: Antihypercholesterolemic activity against high fat diet-induced Sprague-Dawley rat model assessed as change in total cholesterol level at 0.15 mg/kg, po measured at 1 to 24 hrs post dose; format: functional; settings: time 1-24 hrs
[29] = system: Rattus norvegicus; assay: Antihypercholesterolemic activity against high fat diet-induced Sprague-Dawley rat model assessed as change in total cholesterol level at 5 mg/kg, po measured at 1 to 24 hrs post dose; format: functional; settings: time 1-24 hrs
[30] = system: Rattus norvegicus; assay: Antihypercholesterolemic activity against high fat diet-induced Sprague-Dawley rat model assessed as change in LDL-C level at 1.5 mg/kg, po measured at 1 to 24 hrs post dose; format: functional; settings: time 1-24 hrs
[31] = system: Rattus norvegicus; assay: Antihypercholesterolemic activity against high fat diet-induced Sprague-Dawley rat model assessed as change in LDL-C level at 0.15 mg/kg, po measured at 1 to 24 hrs post dose; format: functional; settings: time 1-24 hrs
[32] = system: Rattus norvegicus; assay: Antihypercholesterolemic activity against high fat diet-induced Sprague-Dawley rat model assessed as change in T3 level at 1.5 mg/kg, po measured at 1 to 24 hrs post dose; format: functional; settings: time 1-24 hrs
[33] = system: Rattus norvegicus; assay: Antihypercholesterolemic activity against high fat diet-induced Sprague-Dawley rat model assessed as change in T3 level at 0.15 mg/kg, po measured at 1 to 24 hrs post dose; format: functional; settings: time 1-24 hrs
[34] = system: Rattus norvegicus; assay: Antihypercholesterolemic activity against high fat diet-induced Sprague-Dawley rat model assessed as change in T3 level at 5 mg/kg, po measured at 1 to 24 hrs post dose; format: functional; settings: time 1-24 hrs
[35] = system: Rattus norvegicus; assay: Antihypercholesterolemic activity against high fat diet-induced Sprague-Dawley rat model assessed as change in LDL-C level at 5 mg/kg, po measured at 1 to 24 hrs post dose; format: functional; settings: time 1-24 hrs
[36] = system: Rattus norvegicus; assay: Antihypercholesterolemic activity against high fat diet-induced Sprague-Dawley rat model assessed as change in T4 level at 1.5 mg/kg, po measured at 1 to 24 hrs post dose; format: functional; settings: time 1-24 hrs
[37] = system: Rattus norvegicus; assay: Antihypercholesterolemic activity against high fat diet-induced Sprague-Dawley rat model assessed as change in T4 level at 0.15 mg/kg, po measured at 1 to 24 hrs post dose; format: functional; settings: time 1-24 hrs
[38] = system: Rattus norvegicus; assay: Antihypercholesterolemic activity against high fat diet-induced Sprague-Dawley rat model assessed as change in T4 level at 5 mg/kg, po measured at 1 to 24 hrs post dose; format: functional; settings: time 1-24 hrs
[39] = in vitro; settings: dog, cryopreserved hepatocytes
[40] = in vitro; settings: cynomolgus monkey, cryopreserved hepatocytes

CYP2C9, sequence (P11712 whole entry): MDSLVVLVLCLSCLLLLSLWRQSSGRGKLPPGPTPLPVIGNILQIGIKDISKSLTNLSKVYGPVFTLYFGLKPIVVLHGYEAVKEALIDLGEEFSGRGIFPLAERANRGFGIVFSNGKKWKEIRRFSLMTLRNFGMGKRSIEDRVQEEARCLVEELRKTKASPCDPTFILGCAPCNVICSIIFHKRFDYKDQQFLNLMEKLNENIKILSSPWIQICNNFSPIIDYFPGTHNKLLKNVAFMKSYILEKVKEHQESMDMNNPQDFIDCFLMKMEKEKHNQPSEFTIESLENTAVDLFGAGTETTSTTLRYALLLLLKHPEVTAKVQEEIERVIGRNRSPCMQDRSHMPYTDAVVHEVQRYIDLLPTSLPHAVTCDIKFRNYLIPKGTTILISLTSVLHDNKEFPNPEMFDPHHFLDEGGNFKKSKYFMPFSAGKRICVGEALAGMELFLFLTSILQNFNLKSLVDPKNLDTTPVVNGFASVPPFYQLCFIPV
Voltage-dependent L-type calcium channel subunit alpha-1C, sequence (Q13936 whole entry): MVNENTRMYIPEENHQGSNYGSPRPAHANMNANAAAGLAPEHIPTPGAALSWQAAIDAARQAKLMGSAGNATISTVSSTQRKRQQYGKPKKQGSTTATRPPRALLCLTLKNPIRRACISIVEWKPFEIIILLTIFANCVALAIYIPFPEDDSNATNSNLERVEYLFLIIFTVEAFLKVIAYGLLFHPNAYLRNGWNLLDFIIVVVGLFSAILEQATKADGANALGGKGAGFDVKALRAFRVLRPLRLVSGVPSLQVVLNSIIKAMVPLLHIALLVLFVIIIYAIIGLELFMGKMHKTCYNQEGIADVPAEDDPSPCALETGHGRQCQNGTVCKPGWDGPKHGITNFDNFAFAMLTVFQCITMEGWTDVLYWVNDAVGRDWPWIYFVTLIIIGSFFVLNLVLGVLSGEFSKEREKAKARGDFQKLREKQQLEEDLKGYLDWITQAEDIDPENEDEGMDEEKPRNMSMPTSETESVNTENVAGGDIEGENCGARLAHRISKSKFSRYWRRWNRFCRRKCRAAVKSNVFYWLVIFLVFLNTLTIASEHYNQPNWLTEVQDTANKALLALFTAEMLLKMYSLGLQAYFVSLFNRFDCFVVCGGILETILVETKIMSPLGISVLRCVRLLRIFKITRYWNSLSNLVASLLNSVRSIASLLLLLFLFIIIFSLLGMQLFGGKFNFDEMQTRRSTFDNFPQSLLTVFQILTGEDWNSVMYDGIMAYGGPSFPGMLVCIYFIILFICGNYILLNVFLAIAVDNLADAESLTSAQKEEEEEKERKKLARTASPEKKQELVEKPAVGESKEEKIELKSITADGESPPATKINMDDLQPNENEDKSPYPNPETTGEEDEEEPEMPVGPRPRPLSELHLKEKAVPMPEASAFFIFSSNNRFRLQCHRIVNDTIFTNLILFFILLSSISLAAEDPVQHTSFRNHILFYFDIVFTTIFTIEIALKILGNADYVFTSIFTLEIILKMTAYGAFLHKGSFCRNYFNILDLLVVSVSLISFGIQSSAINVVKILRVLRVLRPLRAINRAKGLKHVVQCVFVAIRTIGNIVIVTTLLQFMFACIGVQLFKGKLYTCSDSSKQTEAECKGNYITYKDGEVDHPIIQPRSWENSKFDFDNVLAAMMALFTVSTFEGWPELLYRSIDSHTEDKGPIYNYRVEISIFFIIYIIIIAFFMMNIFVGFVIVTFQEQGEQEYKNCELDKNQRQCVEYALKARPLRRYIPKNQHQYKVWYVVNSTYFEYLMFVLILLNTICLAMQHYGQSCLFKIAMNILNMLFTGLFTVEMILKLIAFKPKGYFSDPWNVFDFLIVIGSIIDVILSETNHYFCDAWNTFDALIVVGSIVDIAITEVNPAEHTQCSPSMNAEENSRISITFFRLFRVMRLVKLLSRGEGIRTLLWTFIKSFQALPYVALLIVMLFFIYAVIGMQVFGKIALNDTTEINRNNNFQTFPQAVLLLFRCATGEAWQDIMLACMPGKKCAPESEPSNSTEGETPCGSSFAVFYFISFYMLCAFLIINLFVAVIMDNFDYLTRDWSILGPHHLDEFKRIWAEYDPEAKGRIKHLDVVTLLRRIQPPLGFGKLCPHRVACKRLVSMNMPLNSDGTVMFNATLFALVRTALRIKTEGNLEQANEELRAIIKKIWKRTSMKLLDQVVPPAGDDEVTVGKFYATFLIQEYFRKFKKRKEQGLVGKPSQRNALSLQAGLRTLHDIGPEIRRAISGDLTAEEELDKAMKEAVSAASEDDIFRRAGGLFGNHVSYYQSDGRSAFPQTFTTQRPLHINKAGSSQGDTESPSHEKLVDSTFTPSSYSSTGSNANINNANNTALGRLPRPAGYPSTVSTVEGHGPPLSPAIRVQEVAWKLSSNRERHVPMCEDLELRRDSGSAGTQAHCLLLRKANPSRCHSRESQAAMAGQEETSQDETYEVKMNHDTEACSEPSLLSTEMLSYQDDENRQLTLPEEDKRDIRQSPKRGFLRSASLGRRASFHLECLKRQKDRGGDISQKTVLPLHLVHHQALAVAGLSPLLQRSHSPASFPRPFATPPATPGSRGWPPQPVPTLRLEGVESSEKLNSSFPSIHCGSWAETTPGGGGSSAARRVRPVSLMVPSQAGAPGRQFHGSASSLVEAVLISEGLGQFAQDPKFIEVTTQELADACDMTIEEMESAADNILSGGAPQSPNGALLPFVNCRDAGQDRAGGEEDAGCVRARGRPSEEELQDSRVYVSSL
Sodium channel protein type 5 subunit alpha, sequence (Q14524 whole entry): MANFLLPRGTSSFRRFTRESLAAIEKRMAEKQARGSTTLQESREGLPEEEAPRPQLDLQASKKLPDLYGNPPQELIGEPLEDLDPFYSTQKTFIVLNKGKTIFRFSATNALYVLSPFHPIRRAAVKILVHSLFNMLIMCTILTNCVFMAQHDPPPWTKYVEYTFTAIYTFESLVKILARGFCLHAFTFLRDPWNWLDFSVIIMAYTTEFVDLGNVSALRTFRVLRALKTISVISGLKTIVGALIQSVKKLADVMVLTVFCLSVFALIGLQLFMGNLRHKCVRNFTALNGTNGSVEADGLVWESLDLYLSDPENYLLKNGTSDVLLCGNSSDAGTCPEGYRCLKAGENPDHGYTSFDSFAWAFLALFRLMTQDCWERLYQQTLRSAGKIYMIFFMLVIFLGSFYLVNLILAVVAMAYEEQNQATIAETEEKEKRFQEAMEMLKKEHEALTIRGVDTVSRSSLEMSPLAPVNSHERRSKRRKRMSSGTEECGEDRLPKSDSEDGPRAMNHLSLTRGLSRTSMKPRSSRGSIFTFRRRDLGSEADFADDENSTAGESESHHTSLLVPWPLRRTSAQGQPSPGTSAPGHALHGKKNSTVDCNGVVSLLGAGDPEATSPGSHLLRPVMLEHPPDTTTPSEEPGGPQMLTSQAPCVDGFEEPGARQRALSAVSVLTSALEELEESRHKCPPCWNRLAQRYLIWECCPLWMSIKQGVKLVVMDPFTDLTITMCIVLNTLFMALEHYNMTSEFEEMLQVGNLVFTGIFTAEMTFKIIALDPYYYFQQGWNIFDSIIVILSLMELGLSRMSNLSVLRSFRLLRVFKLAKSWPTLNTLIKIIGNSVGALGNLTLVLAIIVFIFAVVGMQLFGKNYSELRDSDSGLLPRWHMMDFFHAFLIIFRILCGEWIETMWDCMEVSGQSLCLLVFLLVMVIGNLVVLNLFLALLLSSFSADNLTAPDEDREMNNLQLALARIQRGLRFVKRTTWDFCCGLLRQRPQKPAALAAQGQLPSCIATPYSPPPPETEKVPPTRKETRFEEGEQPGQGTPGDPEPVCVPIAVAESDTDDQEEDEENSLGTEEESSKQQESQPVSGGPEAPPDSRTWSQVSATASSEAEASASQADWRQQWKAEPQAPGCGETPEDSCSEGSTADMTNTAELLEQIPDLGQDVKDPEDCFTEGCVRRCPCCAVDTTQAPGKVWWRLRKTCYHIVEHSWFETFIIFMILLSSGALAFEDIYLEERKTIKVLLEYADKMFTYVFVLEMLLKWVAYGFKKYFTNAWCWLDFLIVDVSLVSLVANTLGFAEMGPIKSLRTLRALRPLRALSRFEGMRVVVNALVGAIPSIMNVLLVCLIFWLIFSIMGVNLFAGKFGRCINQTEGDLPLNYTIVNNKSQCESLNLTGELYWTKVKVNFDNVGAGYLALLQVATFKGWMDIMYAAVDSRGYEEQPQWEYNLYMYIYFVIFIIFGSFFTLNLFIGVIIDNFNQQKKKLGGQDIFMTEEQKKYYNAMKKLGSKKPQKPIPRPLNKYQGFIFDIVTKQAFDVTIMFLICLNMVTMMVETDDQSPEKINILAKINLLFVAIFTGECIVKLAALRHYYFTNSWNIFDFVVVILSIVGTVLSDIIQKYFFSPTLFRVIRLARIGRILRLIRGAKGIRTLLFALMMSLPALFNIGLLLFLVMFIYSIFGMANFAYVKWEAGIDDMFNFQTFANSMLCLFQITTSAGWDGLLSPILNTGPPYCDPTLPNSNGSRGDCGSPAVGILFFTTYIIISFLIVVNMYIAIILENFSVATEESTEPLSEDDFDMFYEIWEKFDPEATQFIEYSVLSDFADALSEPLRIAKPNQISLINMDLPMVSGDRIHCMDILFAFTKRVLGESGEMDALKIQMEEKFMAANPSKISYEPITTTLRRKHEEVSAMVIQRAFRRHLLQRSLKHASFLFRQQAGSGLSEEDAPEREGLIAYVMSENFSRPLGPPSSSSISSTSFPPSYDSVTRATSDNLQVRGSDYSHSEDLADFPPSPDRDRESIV

- inhibition at 10 µM [1]: 87%
- inhibition at 10 µM [2]: 61%
- Papp A→B at 1 h ([3]; Caco-2): 0.3 ×10⁻⁶ cm/s
- fraction unbound at 4 h, 2 µM [4]: < 0.002
- fraction unbound at 4 h, 2 µM [5]: 0.01
- half-life at 3 h, 1 µM [6]: 1.18 h
- half-life at 3 h, 1 µM [7]: 1.43 h
- half-life at 3 h, 1 µM [8]: 1.72 h
SMILES: C#Cc1nn(-c2cc(Cl)c(Oc3cc(C(C)C)c(=O)[nH]n3)c(Cl)c2)c(=O)[nH]c1=O

- IC50 [9]: 37.5 µM
- IC50 [10]: 23.8 µM
SMILES: CC(C)c1cc(Oc2c(Cl)cc(-n3nc(N)c(=O)[nH]c3=O)cc2Cl)n[nH]c1=O
- IC50 [11]: > 10 µM
- IC50 [12]: > 10 µM

- EC50 [13]: 0.303 µM
- inhibition at 10 µM [1]: 91%
- inhibition at 10 µM [2]: 49%
- Papp ([3]; caco-2, 1 h): 0.03 10^-6 cm/s
- fraction unbound at 4 h, 2 µM [4]: 0.004
- fraction unbound at 4 h, 2 µM [14]: 0.012
- fraction unbound at 4 h, 2 µM [15]: 0.005
- fraction unbound at 4 h, 2 µM [5]: 0.003
- Kp [16]: 6.3
- Kp [17]: 6.8
- Cmax [20]: 2550 ng/mL
- Cmax [21]: 969 ng/mL
- AUC(0-t) at 24 h [22]: 9410 ng·h/mL
- concentration at 24 h [23]: 217 ng/mL
- concentration at 24 h [24]: 38.2 ng/mL
- concentration at 24 h [25]: 613 ng/g
- concentration at 24 h [26]: 73.6 ng/g
- half-life at 3 h, 1 µM [6]: > 6 h
- half-life at 3 h, 1 µM [7]: > 6 h
- half-life at 3 h, 1 µM [39]: > 6 h
- half-life at 3 h, 1 µM [40]: 1.85 h
- half-life at 3 h, 1 µM [8]: 3.22 h
SMILES: CC(C)c1cc(Oc2c(Cl)cc(-n3nc(C#N)c(=O)[nH]c3=O)cc2Cl)n[nH]c1=O [RESMETIROM]
- Activity [18]: Active
- minimal effective dose [19]: 0.15 mg/kg
- Activity [27]: -25.8%
- Activity [28]: 9.5%
- Activity [29]: -34.5%
- Activity [30]: -34.8%
- Activity [31]: -0.8%
- Activity [32]: 1.7%
- Activity [33]: -4.6%
- Activity [34]: -1.9%
- Activity [35]: -44.2%
- Activity [36]: -15.6%
- Activity [37]: -18.4%
- Activity [38]: -15.7%

Source: ChEMBL document CHEMBL5584359, “Discovery and Preclinical Profile of ALG-055009, a Potent and Selective Thyroid Hormone Receptor Beta (THR-β) Agonist for the Treatment of MASH” (J Med Chem, 2024)
